Measured values taken from PMC6719172, “Inhibition of CpLIP2 Lipase Hydrolytic Activity by Four Flavonols (Galangin, Kaempferol, Quercetin, Myricetin) Compared to Orlistat and Their Binding Mechanisms Studied by Quenching of Fluorescence” (Molecules, 2019).

Tests used:
CpLIP2 lipase [1] = molecular target: T1, CpLIP2 lipase (Candida parapsilosis, UniProt Q8NIN8); assay: Quenching of CpLIP2 intrinsic tryptophan fluorescence by flavonols (Stern–Volmer, Lehrer, van't Hoff analysis); assay type: binding; details: for KSV (Stern–Volmer quenching constant): CpLIP2 2.5 µM, pH 7.0, flavonol 2.5–25 µM (GAL 2.5–17.5 µM); for Kq (bimolecular quenching constant): Kq = KSV/τ0, τ0 1.59 ns; for KSV (accessible), Stern–Volmer quenching constant of the exposed W residues / fa (fraction of accessible W residues to the quencher): Lehrer equation; for ΔG (free energy change): ΔG = ΔH − TΔS; for Kd: Kd (dissociation constant)
T1 sequence (Q8NIN8 entry or part of it): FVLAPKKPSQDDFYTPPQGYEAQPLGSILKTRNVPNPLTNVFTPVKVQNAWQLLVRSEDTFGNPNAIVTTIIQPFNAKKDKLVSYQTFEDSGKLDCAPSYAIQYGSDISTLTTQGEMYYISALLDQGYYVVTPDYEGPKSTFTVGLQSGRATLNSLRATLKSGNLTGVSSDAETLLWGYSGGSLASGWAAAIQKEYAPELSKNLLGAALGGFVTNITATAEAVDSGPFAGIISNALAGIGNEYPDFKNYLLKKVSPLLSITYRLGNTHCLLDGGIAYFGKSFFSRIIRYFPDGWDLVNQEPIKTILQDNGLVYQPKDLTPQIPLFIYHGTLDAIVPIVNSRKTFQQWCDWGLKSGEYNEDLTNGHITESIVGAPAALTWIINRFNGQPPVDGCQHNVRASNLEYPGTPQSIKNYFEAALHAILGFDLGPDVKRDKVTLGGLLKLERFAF
Text: The fluorescence quenching spectra of CpLIP2 lipase submitted to increasing concentrations of GAL, KAE, QUE and MYR are shown in Figure 3. A remarkable quenching of the CpLIP2 fluorescence emission was observed. […] The fluorescence quenching is usually described by the linear Stern–Volmer Equations (2) and (3):(2) F0/F = 1 + Ksv [Q] = 1 + Kqτ0 [Q] (3) Kq=Ksv/τ0 where F0 and F are the intrinsic fluorescence intensities of CpLIP2 lipase (fluorophore) in absence or presence of quencher (flavonol), respectively. Kq is the bimolecular quenching constant, τ0 is the lifetime of the fluorophore in the absence of the quencher, [Q] is the concentration of the quencher, and KSV is the Stern–Volmer quenching constant.
The mechanism of quenching, occurring between CpLIP2 lipase and flavonols, was characterized by determining the values of Kq and the thermodynamic parameters by varying the temperature. […] In both cases, the bimolecular quenching constant Kq can be calculated by the ratio between KSV and τ0, itself determined at 1.59 ns for Human Pancreatic Lipase.
The inaccessible or buried residues are responsible for the remaining fluorescence, which is probably independent of the quencher concentration. […] An up-down curvature towards the x-axis has been shown for the four flavonols (Figure 4), indicating the presence of two populations of fluorophores, part of which would not be accessible. That means that some W residues are buried inside the lipase structure and that other residues are exposed to the solvent. Therefore, data were analyzed through the Lehrer equation, also known as the modified (or non-linear) Stern–Volmer Equation (4):(4) F0/ F0−F = 1/ fa Ksv 1/ [Q] +1/ fa
For static quenching, the equilibrium between free and bound CpLIP2 lipase, when the ligand molecules bind independently to equivalent sites of macromolecules, can be described by the following Equation (5):(5) log10F0−F/F=nlog10[Q]+log10Ka where Ka is the binding constant and n the number of binding sites per CpLIP2 molecule.
The results were determined for all flavonols tested at different temperatures from the plots of log10 F0 − F/F versus log10 [Q] and listed in Table 2. The plots show a linear relationship from which the slope equal to n and intercept on y-axis equal to log10 Ka. For the four flavonols, the Ka values increased when the temperatures increased. In addition, the n values were less than 1.0 in all cases and increased according to the temperature. […] Values of the dissociation constant of complexes were deduced from the Stern–Volmer Equation (6) and (7), for which Kd is expressed as the inverse of fa Ksv product. (6) F0/ F0−F= Kd 1/ [Q] +1 (7) Kd= 1/fa Ksv
Thermodynamic parameters were calculated to determine the type of binding forces that contribute in the CpLIP2 lipase–flavonol interactions. […] Both the enthalpy (ΔH) and entropy changes (ΔS) can be estimated from the following van′t Hoff Equation (8):(8) Ln Ka = − ΔH /RT + ΔS /R
The values of Gibbs binding free energy change (ΔG) are calculated from the following Equation (9):(9) ΔG= ΔH − TΔS
To fill up the volume of 300 µL by well, 190 µL of sodium phosphate buffer solution (75 mM, pH 7.0) was added to each well to obtain final concentration at 50 mM. Then, 100 µL of ethanol absolute–water ultrapure (2:8, v/v) solution was added to obtain a final amount of ethanol […] in the well of 300 µL. […] The final concentration of ethanol during the experiments never exceeded 0.07% (v/v). The last step was to add 10 µL of lipase after to have optimized the final concentration of CpLIP2 equal to 2.5 µM for all our assays, giving the optimal fluorescence intensity for all measurements. The measurement of intrinsic fluorescence started after mechanical shaking for 30 s inside the multi-plate reader. […]

CpLIP2 lipase [2] = molecular target: T1, CpLIP2 lipase; assay: Fluorescence resonance energy transfer between CpLIP2 and flavonols (Förster theory); assay type: binding; as to R0 (Förster distance): values in Å; as to r (distance between acceptor and donor): values in Å
Text: Fluorescence emission spectra of CpLIP2 lipase overlap the UV absorption spectrum of each flavonol studied, that may induce fluorescence resonance energy transfer (FRET) governed by the binding distance r between the protein behaving as energy donor and the flavonol energy acceptor. The binding distance r can be calculated via Förster theory with the following Equations (10) and (11):(10) E=1−F/ F0=R06/ R06+r^6 where E is the energy transfer efficiency, which is the photons fraction absorbed and transferred by the donor to the acceptor, F and F0 are the fluorescence intensities of donor (CpLIP2) in the presence or absence of acceptor (flavonol) at the same concentrations. The parameter r is the distance between acceptor and donor, and R0 is the Förster distance, which is the critical energy transfer distance when 50% of the excitation energy is transferred from the donor to the acceptor. […] The value of R0 ranges from 20–90 Å for biological macromolecules.

SMILES: O=c1c(O)c(-c2ccc(O)c(O)c2)oc2cc(O)cc(O)c12 [QUE, quercetin]
- Ka (association constant) (CpLIP2 lipase [1]; 298 K): 2034 ± 2 L/mol
- n (number of binding sites) (CpLIP2 lipase [1]; 298 K): 0.78 ± 0.06
- KSV (Stern–Volmer quenching constant) (CpLIP2 lipase [1]; 298 K): 1.8 ± 0.1 × 10^4 L·mol^−1
- Kq (bimolecular quenching constant) (CpLIP2 lipase [1]; 298 K): 1.1e+13 M⁻¹ s⁻¹
- KSV (accessible), Stern–Volmer quenching constant of the exposed W residues (CpLIP2 lipase [1]; 298 K): 70000 L/mol
- fa (fraction of accessible W residues to the quencher) (CpLIP2 lipase [1]; 298 K): 0.54
- ΔG (free energy change) (CpLIP2 lipase [1]; 298 K): -10.1 kcal/mol
- Ka (association constant) (CpLIP2 lipase [1]; 308 K): 1824 ± 9 L/mol
- n (number of binding sites) (CpLIP2 lipase [1]; 308 K): 0.77 ± 0.05
- KSV (Stern–Volmer quenching constant) (CpLIP2 lipase [1]; 308 K): 1.6 ± 0.6 × 10^4 L·mol^−1
- Kq (bimolecular quenching constant) (CpLIP2 lipase [1]; 308 K): 1e+13 M⁻¹ s⁻¹
- KSV (accessible), Stern–Volmer quenching constant of the exposed W residues (CpLIP2 lipase [1]; 308 K): 80000 L/mol
- fa (fraction of accessible W residues to the quencher) (CpLIP2 lipase [1]; 308 K): 0.52
- ΔG (free energy change) (CpLIP2 lipase [1]; 308 K): -10.4 kcal/mol
- Ka (association constant) (CpLIP2 lipase [1]; 318 K): 3041 ± 2 L/mol
- n (number of binding sites) (CpLIP2 lipase [1]; 318 K): 0.81 ± 0.07
- KSV (Stern–Volmer quenching constant) (CpLIP2 lipase [1]; 318 K): 1.6 ± 0.6 × 10^4 L·mol^−1
- Kq (bimolecular quenching constant) (CpLIP2 lipase [1]; 318 K): 1e+13 M⁻¹ s⁻¹
- KSV (accessible), Stern–Volmer quenching constant of the exposed W residues (CpLIP2 lipase [1]; 318 K): 70000 L/mol
- fa (fraction of accessible W residues to the quencher) (CpLIP2 lipase [1]; 318 K): 0.55
- ΔG (free energy change) (CpLIP2 lipase [1]; 318 K): -10.8 kcal/mol
- Ka (association constant) (CpLIP2 lipase [1]; 328 K): 4616 ± 3 L/mol
- n (number of binding sites) (CpLIP2 lipase [1]; 328 K): 0.85 ± 0.11
- KSV (Stern–Volmer quenching constant) (CpLIP2 lipase [1]; 328 K): 2.0 ± 0.7 × 10^4 L·mol^−1
- Kq (bimolecular quenching constant) (CpLIP2 lipase [1]; 328 K): 1.3e+13 M⁻¹ s⁻¹
- KSV (accessible), Stern–Volmer quenching constant of the exposed W residues (CpLIP2 lipase [1]; 328 K): 50000 L/mol
- fa (fraction of accessible W residues to the quencher) (CpLIP2 lipase [1]; 328 K): 0.69
- ΔG (free energy change) (CpLIP2 lipase [1]; 328 K): -11.1 kcal/mol
- Kd (CpLIP2 lipase [1]; 298 K): 27 ± 6 µM
- Kd (CpLIP2 lipase [1]; 308 K): 24 ± 10 µM
- Kd (CpLIP2 lipase [1]; 318 K): 25 ± 10 µM
- Kd (CpLIP2 lipase [1]; 328 K): 31 ± 13 µM
- fa (fraction of accessible W residues) (CpLIP2 lipase [1]; across temperatures): 0.55
- order of magnitude of Kq (CpLIP2 lipase [1]; all temperatures of Table 1): ~10^13 L mol^−1 s^−1
- ΔS (entropy changes) (CpLIP2 lipase [1]; van't Hoff plot, 298–328 K): 0.14 kJ·mol^−1·K^−1
- percentage of transfer efficiency (CpLIP2 lipase [2]): 6%
- E (energy transfer efficiency) (CpLIP2 lipase [2]; 2.5 µM, 308 K, pH 7.0): 0.06
- J (overlap integral) (CpLIP2 lipase [2]; 2.5 µM, 308 K, pH 7.0): 12 × 10^14 nm^4·cm^−1·M^−1
- R0 (Förster distance) (CpLIP2 lipase [2]; 2.5 µM, 308 K, pH 7.0): 36.9 Å
- r (distance between acceptor and donor) (CpLIP2 lipase [2]; 2.5 µM, 308 K, pH 7.0): 58.7 Å
- r/R0 (CpLIP2 lipase [2]; 2.5 µM, 308 K, pH 7.0): 1.6
